Assay results as given in US9006221B2, “Method of modulating ship activity” (H. Lee Moffitt Cancer Center and Reserach Institute, Inc., priority 2008, dated 2015).

What was measured:
[1] = test system: priming of allogeneic T cell responses by C57Bl6/J splenocytes; test: One-way mixed leukocyte reaction (MLR), stimulator splenocytes treated in vitro; format: cell-based, mouse; settings: splenocytes cultured with compound 72 hr, added at 0, 24 and 48 hr
Experimental: Mean proliferation of 100K BALB/C responders as measured by ^3H-Thymidine uptake after exposure to 200K irradiated BL6 stimulators that were treated with the indicated compound, 1×DMSO or 1× EtOH prior to initiation of the mixed leukocyte reaction (MLR). 1×DMSO serves as the allogeneic MLR positive control for all compounds with the exception of HLM85321 for which 1× EtOH is the positive control. [*p<0.05, **p<0.01].
Spleen cells and lymphe node LN cells are normally robust stimulators of allogeneic T cell responses in the one-way mixed leukocyte reaction (MLR) assay, but they are very poor stimulators when obtained from mice with germline or induced SHIP-deficiency. […]
Mixed leukocyte reactions (MLR): Following RBC lysis, irradiated (2000 Rads) BL6 splenocytes (stimulators) at 8×10^5 cells/well were combined with BALB/c splenocytes (responders) at 4×10^5 cells/well in a one-way MLR assay. […] Incorporated [3H]thymidine was quantitated using a Packard TopCount NXT. Specific [3H]thymidine incorporation into genomic DNA was calculated as the average of the mean (±SEM) of sextuplicate wells. […]

SHIP1 = biological target: T1, SHIP1 (Mus musculus, UniProt Q9ES52); test: Fluorescence polarization (FP) assay of SHIP1 enzymatic activity; format: biochemical; settings: confirmatory FP assay of screening hits
T1 construct: The asterisk in lanes 1 and 3 indicates the ˜145 kD full-length SHIP protein; His tag (C); made in house; host or cells: E. coli Rosetta-Gami 2 (DE3) pLys
T1 sequence (Q9ES52 1-1191): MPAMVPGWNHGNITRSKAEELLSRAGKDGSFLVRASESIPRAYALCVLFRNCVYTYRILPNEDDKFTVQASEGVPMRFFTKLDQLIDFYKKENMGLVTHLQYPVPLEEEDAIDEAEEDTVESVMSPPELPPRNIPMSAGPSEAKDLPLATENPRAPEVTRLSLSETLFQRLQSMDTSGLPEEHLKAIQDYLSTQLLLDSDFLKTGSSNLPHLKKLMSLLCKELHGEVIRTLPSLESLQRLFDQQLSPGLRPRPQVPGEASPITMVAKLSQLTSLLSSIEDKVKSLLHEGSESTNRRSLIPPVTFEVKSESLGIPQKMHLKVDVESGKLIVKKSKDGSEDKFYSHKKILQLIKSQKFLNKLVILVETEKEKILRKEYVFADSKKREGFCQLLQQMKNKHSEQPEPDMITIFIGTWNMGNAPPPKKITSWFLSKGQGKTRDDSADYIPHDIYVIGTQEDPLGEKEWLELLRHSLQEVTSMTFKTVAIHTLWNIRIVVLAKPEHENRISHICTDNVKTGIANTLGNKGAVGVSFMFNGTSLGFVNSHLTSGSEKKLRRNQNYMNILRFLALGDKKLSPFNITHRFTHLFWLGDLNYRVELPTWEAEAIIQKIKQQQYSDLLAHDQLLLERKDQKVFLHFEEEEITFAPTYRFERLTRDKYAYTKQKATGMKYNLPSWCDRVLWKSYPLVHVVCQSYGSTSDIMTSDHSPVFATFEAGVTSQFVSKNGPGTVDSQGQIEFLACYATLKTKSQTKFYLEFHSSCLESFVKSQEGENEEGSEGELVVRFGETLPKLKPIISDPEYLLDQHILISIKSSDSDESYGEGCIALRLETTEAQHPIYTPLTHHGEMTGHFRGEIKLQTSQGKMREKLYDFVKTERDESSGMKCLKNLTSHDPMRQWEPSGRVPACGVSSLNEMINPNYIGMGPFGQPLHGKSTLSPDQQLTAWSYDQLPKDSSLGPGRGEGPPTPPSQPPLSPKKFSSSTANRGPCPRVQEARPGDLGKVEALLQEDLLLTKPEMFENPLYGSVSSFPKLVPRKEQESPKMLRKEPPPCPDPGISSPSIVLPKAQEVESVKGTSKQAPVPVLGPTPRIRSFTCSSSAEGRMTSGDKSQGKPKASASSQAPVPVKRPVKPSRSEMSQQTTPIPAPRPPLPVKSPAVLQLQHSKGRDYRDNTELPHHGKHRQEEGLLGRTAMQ
Excerpt: SHIP is detectable in this expression system as a ˜145 kD protein (FIG. 1a, lane 1). Because of an in-frame Histidine (His) tag on the COOH terminus of SHIP, it can then be purified from E. coli lysates by FPLC over a Ni-containing resin. (FIG. 1a, lane 3). Purified SHIP was routinely obtained in sufficient quantities, using this E. coli expression system and FPLC purification, to conduct high-throughput screening (HTS) of chemical libraries for compounds that inhibit SHIP activity. However, prior to screening, a fluorescence polarization (FP) assay that detects SHIP activity in either a 96- or […] format, seen in FIG. 1b, screen was established. SHIP generates PI(3,4)P2 from its PI(3,4,5)P3 substrate. In the FP assay enzymatic generation of PI(3,4)P2 by SHIP reduces polarized fluorescence (mP) because the fluorescent PI(3,4)P2 “probe” is displaced from a detector protein that binds specifically to PI(3,4)P2. The FP assay is highly specific for SHIP activity in these lysates. No significant 5′-inositol phosphatase activity was detected in E. coli lysates harboring an ‘empty’ pet24b expression vector insert when FPLC fractions where SHIP typically elutes with the imidazole step gradient are analyzed in the FP assay (FIG. 1c).
After preparing purified SHIP and establishing the FP assay, two different chemical libraries, comprising a total of ˜2100 different chemical compounds, were screened. Seventeen compounds capable of inhibiting SHIP activity at μM concentrations were identified in this screen. The compounds were verified for SHIP activity inhibition by repeating the FP assay with the compounds obtained from their respective wells in the replicates of the masterplates for these libraries FIGS. 2-6).
A fluorescence polarization (FP) assay to detect and quantify SHIP2 activity has been previously described [Drees B E, et al., Comb Chem High Throughput Screen (2003) 6(4):321-330], but no assay has been described for the detection of SHIP1. A fluorescence polarization (FP) assay was developed to detect the activity of recombinant SHIP1 (see FIGS. 15a and b) and the FP assay was utilized as a rapid screen to detect compounds in chemical libraries that have inhibitory activity against SHIP1. This screen identified 3α-aminocholestane as a potent inhibitor of SHIP1 enzymatic activity (FIG. 15c). […] This high degree of selectivity could be important, since loss of PTEN function promotes malignancy in parenchymal and hematopoietic tissues. [Yuan T L & Cantley L C Oncogene (2008) 27(41):5497-5510; Zhang J, et al., Nature (2006) 441(7092):518-522; Yilmaz O H, et al., Nature (2006) 441(7092):475-482]
Assay of SHIP1 enzymatic activity: A fluorescent polarization (FP) assay that detects the 5′-inositol phosphatase activity of SHIP1 was developed based on a previously established protocol [Drees B E, et al., Comb Chem High Throughput Screen (2003) 6(4):321-330] and was obtained from Echelon Biosciences (Salt Lake City, USA). Modifications of the protocol included the application of SHIP1 in the assay and an increase in the concentration of MgCl2 to […] to maximize the activity of SHIP1 in this assay. Each enzymatic reaction was performed in a 96 well working plate and added in the following order and concentration: Recombinant SHIP1 (0.1 μg) in PBS+20 mM MgCl2, 100 μM of each individual compound from the NCI Diversity Set and then PI(3,4,5)P3 substrate diluted 1:10 in H2O. The enzymatic reaction was incubated for 30 min at room temperature. The detector, reaction mixture and probe were then combined according to the SHIP2 protocol. Malachite Green Phosphatase Assay Kit was obtained from Echelon Biosciences (Salt Lake City, USA). Assays for SHIP2 were performed according to the manufacturer's protocol. The concentration of SHIP1 and SHIP2 per reaction mixture was […]. PTEN was used at the concentration recommended by the manufacturer.

| SHIP inhibitory activity in FP assay (SHIP1) | SMILES | ability of splenocytes to prime allogeneic T cell responses by BALB/C responders (3H-thymidine uptake) [1] |
| --- | --- | --- |
| – | Cc1ccc(C)c(/C(=N/N=C(N)N)C2CC2)c1.Cl [NSC75513, 2-[(E)-[cyclopropyl-(2,5-dimethylphenyl)methylidene]amino]guanidine chloride] | significantly inhibited |
| SHIP inhibitory activity | CCOC(=O)c1c(C)c(C)n2c1NC(=O)C2 [NSC 624983] | – |
| SHIP inhibitory activity | O=C1CN2CCN(CC2)CC(=O)Nc2ccc(cc2)S(=O)(=O)c2ccc(cc2)NC(=O)CN2CCN(CC2)CC(=O)Nc2ccc(cc2)S(=O)(=O)c2ccc(cc2)N1 [NSC 36806] | – |
| SHIP inhibitory activity | O=C1OC2(c3ccc(O)cc3Oc3cc(O)ccc32)c2c1c(-c1ccccc1)c(-c1ccccc1)c(-c1ccccc1)c2-c1ccccc1 [NSC 119886] | – |
